We go through 32 compounds from US20090291945A1, “CYSTEINE PROTEASE INHIBITORS” (Teijin Pharma Limited, priority 2008, published 2009).

Structures are written as SMILES. Bounds are passed on as bounds.

The target in one series is T1, cathepsin K (Homo sapiens, UniProt P43235).
T1 construct: the active enzyme was obtained as the enzyme fraction by using detergent containing lysis buffer; made in house; host or cells: HEK293T (GenHunter Corporation), transient expression; detergent lysate used as enzyme fraction
T1 sequence (P43235 115-329): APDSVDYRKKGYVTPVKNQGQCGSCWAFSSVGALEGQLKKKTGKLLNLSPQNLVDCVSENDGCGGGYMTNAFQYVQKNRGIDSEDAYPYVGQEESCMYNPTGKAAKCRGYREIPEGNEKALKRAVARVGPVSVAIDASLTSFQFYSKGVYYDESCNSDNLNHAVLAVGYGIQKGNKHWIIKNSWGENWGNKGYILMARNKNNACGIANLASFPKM
The experiment in a line: Cathepsin K inhibitory activity (fluorescent substrate Z-Leu-Arg-MCA). It is filed as biochemical. The following applies: enzyme expressed in HEK293T, 15 min preincubation, 30 min reaction at room temperature, pH 5.5; for IC50: read-out: Activity Intensity (cathepsin K inhibitory activity, pIC50 class) (converted). In outline:
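Enzyme was HEK293T-expressed cathepsin K in pH 5.5 acetate buffer with 2 mM DTT, preincubated 15 min at room temperature with compound. Reaction started with Z-Leu-Arg-MCA (solution prepared at 10 μM), run 30 min, and AMC fluorescence read at 355/460 nm. IC50 taken from the curve of % inhibition vs DMSO.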

Series [1] is described as follows: Metabolic stability test using human liver microsome. It is filed as in vitro ADME. The following applies: NADPH, 37° C., 25 minutes versus 0 minute, LC/MS peak area. The procedure:
For the compounds synthesized according to the method of the above Examples and the compounds of formula (B) (the compounds disclosed in WO2002/070517), the metabolic stability test using the human liver microsome was performed and the residual rate of each compound was calculated.
To a human liver microsome solution (950 μL) was added a test compound solution (10 μL, 100 μM, acetonitrile solution) on an ice bath and the solution was divided into two equal parts, solution A and solution B. Note that the composition of the human liver microsome solution was as follows.
20 mg/mL protein human liver microsome (Xenotech LLC Lenexa, US): 10 μL 500 mM potassium phosphate buffer solution (pH 7.4): 200 μL 10 mM EDTA solution: 100 μL 60 mM MgCl2 solution: 50 μL 100 mM glucose-6-phosphate solution: 50 μL 100 I.U./mL glucose-6-phosphate dehydrogenase solution: 10 μL purified water: 530 μL
To the solution A (480 μL) was added acetonitrile (500 μL) on an ice bath, and then 25 mM NADPH solution (20 μL) was added. After vortexing, the mixture was centrifuged (3,000 rpm) at 4° C. for 10 minutes, and the supernatant was taken as the sample at the reaction time of 0 minute.
To the solution B (480 μL) was added 25 mM NADPH solution (20 μL). The mixture was incubated at 37° C. for 25 minutes. The reaction was quenched with acetonitrile (500 μL) and vortexing. The mixture was centrifuged (3,000 rpm) at 4° C. for 10 minutes, and the supernatant was taken as the sample at the reaction time of 25 minutes.
LC/MS measurement was performed for the samples at the reaction time of 0 minute and the reaction time of 25 minutes. Based on the peak area of the target molecular weight in the MS measurement, the residual rate of the sample at the reaction time of 25 minutes to the sample at the reaction time of 0 minute was calculated in percentage.
In general terms: Liver microsomes are vesicles of endoplasmic reticulum, rich in cytochrome P450 enzymes.

With `CC(C)C[C@H](N[C@@H](c1ccccc1)C(F)(F)F)C(=O)N[C@@H](CCN)CNc1ccc(N2CCOCC2)cc1` [Compound 129], at cathepsin K, the IC50 is 3.16 to 31.6 nM. For the same compound, in series [1], the “Residual Rate at 25 minutes (%)” value came out at 75%.

`CC[C@@H](CNc1ccc(N2CCC[C@@H](C(=O)O)C2)cc1)NC(=O)[C@H](CC(C)(C)F)N[C@@H](c1ccccc1)C(F)(F)F` [Compound 152]: the IC50 on cathepsin K was at most 3.16 nM. For the same compound, the “Residual Rate at 25 minutes (%)” value in series [1] worked out at 88%.

Consider `CC[C@@H](CNc1ccc(N2CCOCC2)cc1)NC(=O)[C@H](CC(C)C)N[C@@H](c1ccc(=O)[nH]c1)C(F)(F)F` [Compound 31], for which the IC50 at cathepsin K was at most 3.16 nM. For the same compound, the “Residual Rate at 25 minutes (%)” value in series [1] is reported as 77%.

Regarding `CC[C@@H](CNc1ccc(N2CCC[C@@H](C(=O)O)C2)cc1)NC(=O)[C@H](CC(C)C)N[C@@H](c1ccccc1)C(F)(F)F` [Compound 149], the IC50 on cathepsin K is at most 3.16 nM. Further, the “Residual Rate at 25 minutes (%)” value in series [1] was determined as 87%.

Take `CC[C@@H](CNc1ccc(OC(C)C(=O)O)cc1OC)NC(=O)[C@H](CC(C)(C)F)N[C@@H](c1ccccc1)C(F)(F)F` (some centres unmarked) [Compound 142]: on cathepsin K, the “Activity Intensity (cathepsin K inhibitory activity, pIC50 class)” value is recorded as “++ (7.5≦pIC50<8.5: ++)”. The “Residual Rate at 25 minutes (%)” value in series [1] is 96%.

Regarding `CC[C@@H](CNc1ccc(OC)cc1OC)NC(=O)[C@H](CC(C)(C)F)N[C@@H](c1ccc(-c2ccc(S(C)(=O)=O)cc2)cc1)C(F)(F)F` [Compound 5, (2S)—N-((1S)-1-{[(2,4-dimethoxyphenyl)amino]methyl}propyl)-2-[((1S)-2,2,2-trifluoro-1-{4-[4-(methylsulfonyl)phenyl]phenyl}ethyl)amino]-4-fluoro-4-methylpentanamide], the IC50 at cathepsin K is at most 3.16 nM. In addition, in series [1], the “Residual Rate at 25 minutes (%)” value came to 0%.

On to `CC(C)C[C@H](Nc1cscc1-c1ccc(N2CCNCC2)cc1)C(=O)NCCNc1ccc(OCc2ccccc2)cc1` [B, reference compound], for which, in series [1], the “Residual Rate at 25 minutes (%)” value was found to be 0%.

On to `CC(C)C[C@H](N[C@@H](c1ccccc1)C(F)(F)F)C(=O)N[C@@H](CCC(=O)OCc1ccccc1)CNc1ccc(N2CCOCC2)cc1` [Compound 68], for which, on cathepsin K, the IC50 is at most 3.16 nM.

Regarding `CC[C@@H](CNc1ccc(N(C)C)cc1)NC(=O)C1(NC(c2ccccc2)C(F)(F)F)CCCCC1` (some centres unmarked) [Compound 14], the IC50 on cathepsin K is 31.6 to 10000 nM.

With `CCOc1ccc(NC[C@H](CC)NC(=O)[C@H](CC(C)(C)F)N[C@@H](c2ccc(-c3ccc(S(C)(=O)=O)cc3)cc2)C(F)(F)F)cc1OCC` [Compound 4, (2S)—N-((1S)-1-{[(3,4-diethoxyphenyl)amino]methyl}propyl)-2-[((1S)-2,2,2-trifluoro-1-{4-[4-(methylsulfonyl)phenyl]phenyl}ethyl)amino]-4-fluoro-4-methylpentanamide], the IC50 at cathepsin K was at most 3.16 nM.

With `CC[C@@H](CNc1ccc(N2CCOCC2)cc1)NC(=O)[C@H](CC(C)(C)F)N[C@@H](c1ccc(-c2ccc(S(C)(=O)=O)cc2)cc1)C(F)(F)F` [Compound 9, (2S)—N-((1S)-1-{[(4-morpholin-4-ylphenyl)amino]methyl}propyl)-2-[((1S)-2,2,2-trifluoro-1-{4-[4-(methylsulfonyl)phenyl]phenyl}ethyl)amino]-4-fluoro-4-methylpentanamide], the IC50 at cathepsin K is at most 3.16 nM.

As to `CC(C)C[C@H](N[C@@H](c1ccccc1)C(F)(F)F)C(=O)N[C@@H](CCNC(=O)OCc1ccccc1)CNc1ccc(N2CCOCC2)cc1` [Compound 105], on cathepsin K, the IC50 is at most 3.16 nM.

For `CC[C@@H](CNc1ccc(N2CCOCC2)cc1)NC(=O)[C@H](CC(C)C)N[C@@H](c1ccc(OC(F)F)cc1)C(F)(F)F` [Compound 33], on cathepsin K, the IC50 was at most 3.16 nM.

For `CC[C@@H](CNc1ccc(OCC(=O)NCCO)cc1OC)NC(=O)[C@H](CC(C)(C)F)N[C@@H](c1ccccc1)C(F)(F)F` [Compound 137], the IC50 on cathepsin K was at most 3.16 nM.

Regarding `CC[C@@H](CNc1ccc(N(C)C)cc1)NC(=O)[C@H](CC(C)(C)F)N[C@@H](c1ccc(-c2ccc(S(C)(=O)=O)cc2)cc1)C(F)(F)F` [Compound 12], on cathepsin K, the IC50 is at most 3.16 nM.

For `COc1ccc(NC[C@H](COCc2ccccc2)NC(=O)[C@H](CC(C)(C)F)N[C@@H](c2ccc(-c3ccc(S(C)(=O)=O)cc3)cc2)C(F)(F)F)cc1` [Compound 2, N-{(1R)-2-[(4-methoxyphenyl)amino]-1-[(phenylmethoxy)methyl]ethyl}(2S)-2-[((1S)-2,2,2-trifluoro-1-{4-[4-(methylsulfonyl)phenyl]phenyl}ethyl)amino]-4-fluoro-4-methylpentanamide], at cathepsin K, the IC50 is 31.6 to 10000 nM.

As to `COc1ccc(NC[C@H](C)NC(=O)[C@H](CC(C)C)N[C@@H](c2ccc(S(C)(=O)=O)cc2)C(F)(F)F)c(OC)c1` [Compound 77], the IC50 at cathepsin K is 3.16 to 31.6 nM.

In the case of `CC[C@@H](CNc1ccc(OC)cc1OC)NC(=O)[C@H](CC(C)C)N[C@@H](c1ccc(O)cc1)C(F)(F)F` [Compound 157, (2S)—N-((1S)-1-{[(2,4-dimethoxyphenyl)amino]methyl}propyl)-2-{[(1S)-2,2,2-trifluoro-1-(4-hydroxyphenyl)ethyl]amino}-4-methylpentanamide], the IC50 at cathepsin K is 3.16 to 31.6 nM.

As for `CC[C@@H](CNc1ccc(OC)cc1OC)NC(=O)[C@H](Cc1ccccc1)N[C@@H](c1ccccc1)C(F)(F)F` [Compound 57], the IC50 on cathepsin K was 31.6 to 10000 nM.

Consider `CC[C@@H](CNc1ccc(N2CCC(O)CC2)cc1)NC(=O)[C@H](CC(C)C)N[C@@H](c1ccccc1)C(F)(F)F` [Compound 108], for which the IC50 on cathepsin K is at most 3.16 nM.

In the case of `CC[C@@H](CNc1ccc(-n2nccc2C(=O)O)cc1)NC(=O)[C@H](CC(C)C)N[C@@H](c1ccccc1)C(F)(F)F` [Compound 143], the IC50 on cathepsin K was 31.6 to 10000 nM.

`CC(C)C[C@H](N[C@@H](c1ccc(S(C)(=O)=O)cc1)C(F)(F)F)C(=O)N[C@@H](C)CNc1ccc(N2CCOCC2)cc1` [Compound 73]: on cathepsin K, the IC50 is at most 3.16 nM.

Consider `CC[C@@H](CNc1ccc(-n2nccc2C(=O)O)cc1)NC(=O)[C@H](CC(C)C)N[C@@H](c1ccc(OC)nc1)C(F)(F)F` [Compound 144], for which the IC50 on cathepsin K is 31.6 to 10000 nM.

Consider `COc1ccc(NC[C@H](CCS(C)(=O)=O)NC(=O)[C@H](CC(C)C)N[C@@H](c2ccc(S(C)(=O)=O)cc2)C(F)(F)F)c(OC)c1` [Compound 82], for which the IC50 at cathepsin K was 3.16 to 31.6 nM.

`CC[C@@H](CNc1ccc(OCC(=O)OCc2ccccc2)cc1OC)NC(=O)[C@H](CC(C)(C)F)N[C@@H](c1ccc(Br)cc1)C(F)(F)F` [Compound 20, Phenylmethyl 2-{4-[((2S)-2-{(2S)-2-{[(1S)-2,2,2-trifluoro-1-(4-bromophenyl)ethyl]amino}-4-fluoro-4-methylpentanoylamino}butyl)amino]-3-methoxyphenoxy}acetate]: the IC50 at cathepsin K is at most 3.16 nM.

For `CC(C)C[C@H](N[C@@H](c1ccccc1)C(F)(F)F)C(=O)N[C@@H](CCCC(=O)OC(C)(C)C)CNc1ccc(N2CCOCC2)cc1` [Compound 91], the IC50 on cathepsin K is at most 3.16 nM.

With `CC[C@@H](CNc1ccc(OCCS(C)(=O)=O)cc1OC)NC(=O)[C@H](CC(C)C)N[C@@H](c1cccnc1)C(F)(F)F` [Compound 39], the IC50 on cathepsin K is 3.16 to 31.6 nM.

Consider `CC[C@@H](CNc1ccc(OCC(=O)N2CCCC2)cc1OC)NC(=O)[C@H](CC(C)(C)F)N[C@@H](c1ccccc1)C(F)(F)F` [Compound 135], for which, on cathepsin K, the IC50 is at most 3.16 nM.

For `CC[C@@H](CNc1ccc(N2CCSCC2)cc1)NC(=O)[C@H](CC(C)(C)F)N[C@@H](c1ccc(Br)cc1)C(F)(F)F` [Compound 18], the IC50 at cathepsin K is at most 3.16 nM.

For `CC[C@@H](CNc1ccc(OC)cc1OC)NC(=O)[C@@H](N[C@@H](c1ccccc1)C(F)(F)F)[C@@H](C)CC` [Compound 60], the IC50 at cathepsin K is 3.16 to 31.6 nM.

Take `CCOC(=O)C1CCN(c2ccc(NC[C@H](CC)NC(=O)[C@H](CC(C)C)N[C@@H](c3ccc(OC)nc3)C(F)(F)F)cc2)CC1` [Compound 50]: the IC50 on cathepsin K was at most 3.16 nM.

`CC[C@@H](CNc1ccc(-c2ccccc2)cc1)NC(=O)[C@H](CC(C)C)N[C@@H](c1ccccc1)C(F)(F)F` [Compound 45]: the IC50 on cathepsin K is 31.6 to 10000 nM.
